Data set [1] relates to Recombinant adenovirus expressing enhanced GFP. The experiment in a line: Recovered adenoviral activity after 7 days at 4° C. or 37° C. with glycinergics or SMM (Example 4). The class given is cell-based. Particulars: one week at 37° C.
In a further data set the test system is white cell fraction. The experiment in a line: White cell viability in human blood diluted with excipients, Guava Viacount (Example 18). The class given is cell-based. The note with it: equal volume dilution, 25° C. for 30 minutes.
[2] abbreviates: 0.07 M, sole excipient (no sugars).
[3] abbreviates: 0.07 M, with sugars (1M Sucrose, 100 mM Raffinose).
Setting [4] is: 0.70 M, sole excipient (no sugars).
Where [5] appears, read: 0.70 M, with sugars (1M Sucrose, 100 mM Raffinose).

Consider `NCC(=O)O` [glycine, Glycine, reference compound], for which the recovered viral activity in data set [1] (setting [2]) is given as 29%; in data set [1] (setting [3]), 41%; in data set [1] (setting [4]), 45%; in data set [1] (setting [5]), 54%.

`CNCC(=O)O` [sarcosine, N-Methyl-glycine]: the recovered viral activity in data set [1] (setting [2]) stood at 29%; in data set [1] (setting [3]) it was 37%; in data set [1] (setting [4]), 49%; in data set [1] (setting [5]) it was 56%.

For `C[S+](C)CC[C@H](N)C(=O)O` [SMM, S-methyl-L-methionine], the recovered viral activity in data set [1] (setting [2]) is reported as 33%; in data set [1] (0.23 M, sole excipient (no sugars)), 43%.

Turning to `C[N+](C)(C)CC(=O)O` [TMG, N,N,N-trimethylglycine], the recovered viral activity in data set [1] (setting [2]) is 21%; in data set [1] (setting [3]) it was 45%; in data set [1] (setting [4]) it was 45%; in data set [1] (setting [5]), 38.7%.

On to `CN(C)CC(=O)O` [DMG, N,N-Dimethylglycine], for which the “effect on white cell viability in the blood sample” value with white cell fraction is listed as “no adverse effects”. In addition, the recovered viral activity in data set [1] (setting [2]) is 27%; in data set [1] (setting [3]), 37%; in data set [1] (setting [4]) it was 41%; in data set [1] (setting [5]) it was 52%.

(Values after US10716859B2, “Excipients for stabilising viral particles, polypeptides or biological material” (priority 2010, dated 2020).)
